Reference: ChEMBL document CHEMBL1158079, “Antimalarial 4-phenylcoumarins from the stem bark of Hintonia latiflora” (J Nat Prod, 2006)
Converted amounts (≈) assume the structure as drawn.

Experiments:
Plasmodium berghei [1] = experiment: Antimalarial activity as reduced schizont maturation in Plasmodium berghei ANKA infected mice (Mus musculus) at 40 mg/kg/day peroral dose over 4 days; format: functional; parameters: scale not given: the % may be the effect or the level left; conditions: route oral
Plasmodium berghei [2] = experiment: Antimalarial activity as reduced schizont maturation in Plasmodium berghei after 16 hrs; format: functional; parameters: scale not given: the % may be the effect or the level left
Mus musculus = experiment: Toxicity in Plasmodium berghei ANKA infected mice (Mus musculus) at 40 mg/kg/day, perorally after 4 days; format: organism-based; parameters: route oral; conditions: in vivo, po, 96 h
Plasmodium berghei [3] = experiment: Antimalarial activity as reduced schizont maturation in Plasmodium berghei ANKA infected mice (Mus musculus) at 5 mg/kg/day peroral dose over 4 days; format: functional; parameters: scale not given: the % may be the effect or the level left; conditions: route oral
Plasmodium berghei [4] = experiment: Antimalarial activity reduced schizont maturation in Plasmodium berghei at 10 ug/mL after 16 hrs; format: functional; parameters: scale not given: the % may be the effect or the level left
Plasmodium berghei [5] = experiment: Antimalarial activity in schizont maturation against Plasmodium berghei ANKA infected mice (Mus musculus) at 200 mg/kg/day peroral dose over 4 days; format: functional; conditions: route oral
[6] = Toxicity against human KB cells; format: cell-based; conditions: read-out: ED50 (the source's name)
[7] = Toxicity against mouse P388 cells; format: cell-based; conditions: read-out: ED50 (the source's name)
[8] = Toxicity against human SQC1 UISO cells; format: cell-based; conditions: read-out: ED50 (the source's name)

SMILES	Activity (Plasmodium berghei [1])	Activity (Plasmodium berghei [2])	Activity (Mus musculus)	Activity (Plasmodium berghei [3])	Activity (Plasmodium berghei [4])	Activity (Plasmodium berghei [5])	CC50 [6]	CC50 [7]	CC50 [8]
COc1cc(O[C@@H]2O[C@H](CO)[C@@H](O)[C@H](O)[C@H]2O)c2c(-c3ccc(OC)c(O)c3)cc(=O)oc2c1	35.1%	24.7%	Non-toxic						
CCN(CC)CCCC(C)Nc1ccnc2cc(Cl)ccc12 (stereo not drawn) [CHLOROQUINE]			Non-toxic	95.7%	100%	94%			
Cc1c2ccncc2c(C)c2c1[nH]c1ccccc12 [ELLIPTECINE]							1.31 µg/mL (≈ 5.32 µM)	< 1 µg/mL	1.77 µg/mL (≈ 7.19 µM)
COc1cc(O[C@@H]2O[C@H](CO)[C@@H](O)[C@H](O)[C@H]2O)c2c(-c3ccc(O)c(O)c3)cc(=O)oc2c1	70.8%	25.9%	Non-toxic						
